# Where a chain is given by its changes, count along the chain named.
# What was measured:
# aqMutL NTD [1] = molecular target: T1, aqMutL NTD (Aquifex aeolicus, UniProt O67518); test: equilibrium dialysis; assay type: binding
# T1 construct: gene mutL; recombinant from E. coli
# T1 sequence (O67518 1-319 limits assumed): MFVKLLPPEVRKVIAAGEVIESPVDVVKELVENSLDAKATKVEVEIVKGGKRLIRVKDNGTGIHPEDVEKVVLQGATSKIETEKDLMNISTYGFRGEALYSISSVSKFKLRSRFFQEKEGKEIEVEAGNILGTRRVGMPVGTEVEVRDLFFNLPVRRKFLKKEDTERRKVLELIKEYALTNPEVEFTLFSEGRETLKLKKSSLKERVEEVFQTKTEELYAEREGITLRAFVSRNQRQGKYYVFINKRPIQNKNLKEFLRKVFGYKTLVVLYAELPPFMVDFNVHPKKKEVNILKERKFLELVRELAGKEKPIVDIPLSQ
# aqMutL NTD [2] = molecular target: T2, aqMutL NTD (Aquifex aeolicus, UniProt O67518, K79A); test: equilibrium dialysis; assay type: binding
# T2 construct: gene mutL; recombinant from E. coli
# T2 sequence (O67518 1-319 K79A limits assumed): T1 sequence (O67518 1-319 limits assumed) with K79A
smiles,measurement,setting,value
Nc1ncnc2c1ncn2[C@@H]1O[C@H](COP(=O)(O)OP(=O)(O)NP(=O)(O)O)[C@@H](O)[C@H]1O [AMPPNP],Kd,aqMutL NTD [1],300 µM
same,Kd,aqMutL NTD [2],340 µM
